# Data published in patent US9265761B2, “Compositions and methods for treating purpura” (ALLERGAN, INC., priority 2007, dated 2016).
# Counter-ions that a name gives are not always drawn. Like-named read-outs stand apart in the source and are kept apart here.
# Experiments:
# purpura = assay: Resolution of pulsed-dye laser induced purpura, topical application after laser (Example 1); assay type: in vivo, human; conditions: commercial solutions applied topically every 6-8 hours after pulsed-dye laser (585 nm), trunk of a volunteer, followed 1-13 days; oxymetazoline HCl 0.05%, naphazoline HCl 0.03%, tetrahydrozoline HCl 0.05%, phenylephrine HCl 1.0%, brimonidine tartrate 0.2%
# Excerpt: The applied solution was allowed to air-dry without any dressing. […] The evaluated compounds were:
# The sites were followed clinically and photographically 1, 3, 4, 6, 11 and 13 days after the creation of the purpura.
# laser-induced purpura = assay: Prevention of laser-induced purpura, topical pretreatment before laser (Example 2); assay type: in vivo, human; conditions: topical application 3 hours and 1 hour prior to laser; oxymetazoline HCl 0.05%, naphazoline HCl 0.03%, tetrahydrozoline HCl 0.05%, phenylephrine HCl 1.0%, brimonidine tartrate 0.2%
# Excerpt: In order to evaluate the effect of topically applied α1 and α2 adrenergic agonists on the prevention of laser-induced purpura on normal non-actinically damaged skin, seven sites on the trunk of a volunteer were marked and treated with the topical application of a commercially available α1 and/or α2 agonist preparation. Six (of the seven) marked sites were pretreated with the topical application of at least one of the testing preparations. The preparations were applied to the skin and gently rubbed on the skin over and immediately surrounding the laser treatment sites 3 hours prior to and 1 hour prior to the delivery of the laser energy. The applied solution was allowed to air-dry without any dressing. […] After the delivery of the laser energy, each spot received only topical petrolatum jelly 3-4 times/day and no additional application of any testing compound. The sites were followed clinically and photographically 1, 3, 4, 6, 11 and 13 days after the creation of the purpura. The evaluated compounds were:
# Site 8: Oxymetazoline hydrochloride (0.05%): A solution of oxymetazoline hydrochloride 0.05% (Afrin® Original 12 Hour Nasal Spray (Schering-Plough Healthcare Products) containing: oxymetazoline hydrochloride 0.05%, benzalkonium chloride solution, edetate disodium, polyethylene glycol, povidone, propylene glycol, purified water, sodium phosphate dibasic, sodium phosphate monobasic.
# Site 9: Naphazoline hydrochloride (0.03%): A solution of naphazoline hydrochloride 0.03% (Clear Eyes® Maximum Redness Relief (Prestige Brands Inc.) containing: naphazoline hydrochloride 0.03%, glycerin 0.5%, benzalkonium chloride, boric acid, edetate disodium, purified water, sodium borate).
# Site 10: Tetrahydrozoline hydrochloride (0.05%): A solution of tetrahydrozoline hydrochloride 0.05% (Visine® Original (Pfizer Consumer Healthcare) containing: tetrahydrozoline hydrochloride 0.05%, benzalkonium chloride, boric acid, edetate disodium, purified water, sodium borate, sodium chloride).
# Site 11: Phenylephrine hydrochloride (1.0%): A solution of phenylephrine hydrochloride 1.0% (Neo-Synephrine® Extra Strength Spray (Bayer HealthCare) containing: phenylephrine hydrochloride 1.0%, anhydrous citric acid, benzalkonium chloride, sodium chloride, sodium citrate, water).
# Site 14: No treatment after laser light delivered. (“Control”)
# solar purpura [1] = assay: Treatment and prevention of solar purpura with topical α1 adrenergic agonist (Example 4); assay type: in vivo, human
# Protocol: Subject 1 is a person with a long-standing history of solar purpura on their forearms. The test area comprised the left dorsal (extensor) forearm from the wrist to the elbow. Pretreatment photos were taken and baseline measurements of the solar purpura on the left extensor forearm from the wrist to the elbow were measured. […] The total area of purpura was 8.94 cm^2. (SEE TABLE 2)
# (§1) A solution of oxymetazoline hydrochloride 0.05% (Afrin® Original 12 Hour Nasal Spray (Schering-Plough Healthcare Products) containing: oxymetazoline hydrochloride 0.05%, benzalkonium chloride solution, edetate disodium, polyethylene glycol, povidone, propylene glycol, purified water, sodium phosphate dibasic, sodium phosphate monobasic (0.005%)) was applied by the patient to the left dorsal forearm twice daily (morning and evening). […] The sites were followed clinically and photographically.
# Subject 2 is a person with a long history of cosmetically disturbing solar purpura on their forearms who wanted to improve the appearance solar (decrease the purpura). The test area comprised the left dorsal (extensor) forearm from the wrist to the elbow. Pretreatment photos were taken and baseline measurements of the solar purpura on the left extensor forearm from the wrist to the elbow were measured. […] The total area of purpura was 1.72 cm^2. (SEE TABLE 3)
# as §1, with “once” for “twice”, “(morning).” for “(morning and evening).”
# solar purpura [2] = conditions: for Effect: decrease of purpura area compared to mean baseline / Purpura Area / Effect: increase of purpura area compared to mean baseline: 0.2% solution twice daily; for Effect: decrease of purpura area compared to mean baseline / Purpura Area: right dorsal forearm; for Purpura Area: mean baseline 3.67 cm^2; for Effect: increase of purpura area compared to mean baseline: day 24, increase in purpura noted after gardening
# Excerpt: The use of a topically applied α2 adrenergic agonist for the treatment and prevention of solar purpura (“actinic purpura”, “Bateman's purpura”): In order to evaluate the effect of topically applied α1 and α2 adrenergic agonists on the prevention and treatment of solar purpura, a volunteer with a diagnosis of solar purpura of the forearms treated with a topically applied α2 adrenergic agonist containing solution. The test area comprised the right extensor forearm from the wrist to the elbow. Photos were taken and baseline scores for the solar purpura on their right dorsal forearm from the wrist to the elbow were measured 6 times over a 91 day period before initiating treatment. Two measurements were taken to approximate the area of each purpuric patch.
# The solution was applied with a cotton ball to the skin of the entire right extensor forearm from the wrist to the elbow. The sites were followed clinically and photographically.
# [3] = Subject 1, 0.05% solution twice daily
# [4] = Subject 2, 0.05% solution once daily
compound,measurement,setting,value
c1ccc2c(CC3=NCCN3)cccc2c1 [naphazoline hydrochloride],resolution of the purpura compared with non-treated control site,purpura,most pronounced
same,"how pronounced the effect of pretreatment was (smaller purpuric macule/patch, shortened resolution)",laser-induced purpura,more pronounced
Cc1cc(C(C)(C)C)c(O)c(C)c1CC1=NCCN1 [oxymetazoline hydrochloride],Purpura Area,"solar purpura [1]; Subject 1, day 17, 0.05% solution twice daily, left extensor forearm, baseline 8.94 cm^2",9.95 cm^2
same,Effect: increase of purpura area compared to baseline,"solar purpura [1]; Subject 1, day 17, 0.05% solution twice daily, hydrochloride",↑ 11% from Baseline
same,Effect: increase of purpura area compared to baseline,"solar purpura [1]; Subject 1, day 17, 0.05% solution twice daily, listed as oxymetazoline, hydrochloride",11%
same,Purpura Area,"solar purpura [1]; Subject 1, day 29, 0.05% solution twice daily, baseline 8.94 cm^2",5.73 cm^2
same,Effect: decrease of purpura area compared to baseline,"solar purpura [1]; Subject 1, day 29, 0.05% solution twice daily, hydrochloride",↓ 36% from Baseline
same,Effect: decrease of purpura area compared to baseline,"solar purpura [1]; Subject 1, day 29, 0.05% solution twice daily, listed as oxymetazoline, hydrochloride",36%
same,Purpura Area,"solar purpura [1]; Subject 1, day 44, 0.05% solution twice daily, baseline 8.94 cm^2",5.6 cm^2
same,Effect: decrease of purpura area compared to baseline,"solar purpura [1]; Subject 1, day 44, 0.05% solution twice daily, hydrochloride",↓ 37% from Baseline
same,Effect: decrease of purpura area compared to baseline,"solar purpura [1]; Subject 1, day 44, 0.05% solution twice daily, listed as oxymetazoline, hydrochloride",37%
same,Purpura Area,"solar purpura [1]; Subject 1, day 81, 0.05% solution twice daily, baseline 8.94 cm^2",1.44 cm^2
same,Effect: decrease of purpura area compared to baseline,"solar purpura [1]; Subject 1, day 81, 0.05% solution twice daily, hydrochloride",↓ 84% from Baseline
same,Effect: decrease of purpura area compared to baseline,"solar purpura [1]; Subject 1, day 81, 0.05% solution twice daily, listed as oxymetazoline, hydrochloride",84%
same,Purpura Area,"solar purpura [1]; Subject 1, day 91 (medication discontinued day 91), 0.05% solution twice daily, baseline 8.94 cm^2",0.42 cm^2
same,Effect: decrease of purpura area compared to baseline,"solar purpura [1]; Subject 1, day 91, 0.05% solution twice daily, hydrochloride",↓ 95% from Baseline
same,Effect: decrease of purpura area compared to baseline,"solar purpura [1]; Subject 1, day 91, 0.05% solution twice daily, listed as oxymetazoline, hydrochloride",95%
same,Purpura Area,"solar purpura [1]; Subject 1, day 98, 7 days off medication, day 91 value 0.42 cm^2",1.96 cm^2
same,Effect: increase of purpura area (table: from Baseline; text: from day 91 measurement),"solar purpura [1]; Subject 1, day 98, 7 days off medication, hydrochloride",↑ 366% from Baseline
same,Effect: increase of purpura area (table: from Baseline; text: from day 91 measurement),"solar purpura [1]; Subject 1, day 98, 7 days off medication, listed as oxymetazoline, hydrochloride",366%
same,Purpura Area,"solar purpura [1]; Subject 1, day 112, 14 days off medication, day 91 value 0.42 cm^2",0.46 cm^2
same,Effect: increase of purpura area (table: from Baseline; text: from day 91 measurement),"solar purpura [1]; Subject 1, day 112, 14 days off medication, hydrochloride",↑ 10% from Baseline
same,Effect: increase of purpura area (table: from Baseline; text: from day 91 measurement),"solar purpura [1]; Subject 1, day 112, 14 days off medication, listed as oxymetazoline, hydrochloride",10%
same,Purpura Area,"solar purpura [1]; Subject 1, day 122, 24 days off medication, day 91 value 0.42 cm^2",2.22 cm^2
same,Effect: increase of purpura area (table: from Baseline; text: from day 91 measurement),"solar purpura [1]; Subject 1, day 122, 24 days off medication, hydrochloride",↑ 428% from Baseline
same,Effect: increase of purpura area (table: from Baseline; text: from day 91 measurement),"solar purpura [1]; Subject 1, day 122, 24 days off medication, listed as oxymetazoline, hydrochloride",428%
same,patient's impression: new purpuric macules/patches while using the medication,solar purpura [1]; [3],fewer new purpuric macules/patches
same,patient's impression: resolution of purpura that occurred,solar purpura [1]; [3],resolve more quickly
same,"side effects, local or systemic, during the treatment","solar purpura [1]; Subject 1, 0.05% solution twice daily, 91 days","no side effects, either local or systemic"
same,Purpura Area,"solar purpura [1]; Subject 2, day 7, 0.05% solution once daily, left extensor forearm, baseline 1.72 cm^2, hydrochloride",0.00 cm^2
same,Purpura Area,"solar purpura [1]; Subject 2, day 7, 0.05% solution once daily, left extensor forearm, baseline 1.72 cm^2, listed as oxymetazoline, hydrochloride",0 cm^2
same,Effect: decrease of purpura area compared to baseline,"solar purpura [1]; Subject 2, day 7, 0.05% solution once daily, hydrochloride",↓ 100% from Baseline
same,Effect: decrease of purpura area compared to baseline,"solar purpura [1]; Subject 2, day 7, 0.05% solution once daily, listed as oxymetazoline, hydrochloride",100%
same,Purpura Area,"solar purpura [1]; Subject 2, day 31, 0.05% solution once daily, baseline 1.72 cm^2, hydrochloride",0.00 cm^2
same,Purpura Area,"solar purpura [1]; Subject 2, day 31, 0.05% solution once daily, baseline 1.72 cm^2, listed as oxymetazoline, hydrochloride",0 cm^2
same,Effect: decrease of purpura area compared to baseline,"solar purpura [1]; Subject 2, day 31, 0.05% solution once daily, hydrochloride",↓ 100% from Baseline
same,Effect: decrease of purpura area compared to baseline,"solar purpura [1]; Subject 2, day 31, 0.05% solution once daily, listed as oxymetazoline, hydrochloride",100%
same,Purpura Area,"solar purpura [1]; Subject 2, day 36, 0.05% solution once daily, baseline 1.72 cm^2",0.36 cm^2
same,patient's impression: new purpuric patches while using the medication,solar purpura [1]; [4],fewer new purpuric patches
same,patient's impression: resolution of purpura that occurred,solar purpura [1]; [4],resolve more quickly
same,"side effects, local or systemic, during the treatment",solar purpura [1]; [4],"no side effects, either local or systemic"
same,overall outcome of the trials on solar purpura,"solar purpura [1]; topically applied once or twice daily, two subjects",dramatically reduces the size and appearance of purpuric macules/patches and may eliminate them
same,resolution of the purpura compared with non-treated control site,purpura,most pronounced
same,"how pronounced the effect of pretreatment was (smaller purpuric macule/patch, shortened resolution)",laser-induced purpura,more pronounced
CNC[C@H](O)c1cccc(O)c1 [phenylephrine hydrochloride],resolution of the purpura compared with non-treated control site,purpura,most pronounced
same,"how pronounced the effect of pretreatment was (smaller purpuric macule/patch, shortened resolution)",laser-induced purpura,more pronounced
c1ccc2c(c1)CCCC2C1=NCCN1 (centres unmarked) [tetrahydrozoline hydrochloride],"how pronounced the effect of pretreatment was (smaller purpuric macule/patch, shortened resolution)",laser-induced purpura,more pronounced
brimonidine tartrate,overall outcome of the trial on solar purpura,solar purpura [2]; 0.2% topically applied twice daily,reduces the size and appearance of purpuric macules/patches
same,Effect: decrease of purpura area compared to mean baseline,solar purpura [2]; day 7,↓ 60% from Baseline
same,Purpura Area,"solar purpura [2]; day 7, person",1.48 cm^2
same,Effect: decrease of purpura area compared to mean baseline,"solar purpura [2]; day 7, listed as brimonidine",60%
same,Effect: decrease of purpura area compared to mean baseline,solar purpura [2]; day 14,↓ 90% from Baseline
same,Effect: decrease of purpura area compared to mean baseline,"solar purpura [2]; day 14, listed as brimonidine",90%
same,Purpura Area,solar purpura [2]; day 14,0.35 cm^2
same,Purpura Area,"solar purpura [2]; day 24, after gardening",5.72 cm^2
same,Effect: increase of purpura area compared to mean baseline,solar purpura [2],↑ 34% from Baseline
same,Effect: increase of purpura area compared to mean baseline,solar purpura [2]; listed as brimonidine,34%
same,Purpura Area,solar purpura [2]; day 36,2.52 cm^2
same,"how pronounced the effect of pretreatment was (smaller purpuric macule/patch, shortened resolution)",laser-induced purpura,less pronounced
